Molecules are shown by their SMILES.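 Step 1: Grow cells in 96-well plates. Step 2: Expose to compound for 48 hours at 5 concentrations. Step 3: Interpolate endpoints linearly; if unreached, use highest concentration. Here, GI50 denotes the concentration required for 50% inhibition of growth.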 Activity calls are given as the source filed them. Rule as the data show it: active = GI50 up to about 1.1 µM and inactive = higher.

What all share (assay): NCI tumour cell line growth inhibition, 48 h
The subject of test [1] is OVCAR-5.
Test [2] deals with Hs-578T.
Test [3] deals with MDA-MB-231.
Test [4] concerns CCRF-CEM.
The test system of test [5] is HCT-116.
In test [6] the test system is SK-MEL-2.
The test system of test [7] is MCF7.
For test [8], the system named is UO-31.
Test [9] deals with HCT-15.
The test system of test [10] is KM12.
The subject of test [11] is SW-620.
Test [12] deals with K562.
Test [13] deals with OVCAR-8.
Test [14] has as its system IGROV-1.
The subject of test [15] is HOP-92.
The subject of test [16] is LOX IMVI.
Test [17] deals with MOLT-4.
Test [18] has as its system MDA-MB-435.
Test [19] relates to 786-0.
Test [20] concerns SK-MEL-5.

Regarding `c1ccc(-c2c[nH]c(SC(c3ccccc3)c3ccccc3)n2)cc1`, the GI50 was 55.7 µM (inactive) in [1]; 33.3 µM (inactive) in test [2]; 58.6 µM (inactive) in test [3]; 19.3 µM (inactive) in test [4]; 12.7 µM (inactive) in test [5]; 16.9 µM (inactive) in [6]. Moreover, the GI50 was 20.3 µM (inactive) in [7]; 29.6 µM (inactive) in test [8]; 13.3 µM in test [9]; 16.8 µM (inactive) in test [10]; 27.6 µM (inactive) in test [11]; 12.7 µM (inactive) in [12]. Moreover, the GI50 in test [13] is 19.6 µM (inactive); in [14] it was 19.2 µM (inactive); in test [15] it was 9.51 µM (inactive); in [16], 17.6 µM (inactive); in test [17], 15.7 µM (inactive); in test [18], 21.1 µM (inactive). For the same molecule, the GI50 in [19] was 32.1 µM (inactive); in [20], 12.4 µM (inactive).

On to `COc1cc(CNc2c3ccccc3nc3ccccc23)cc(OC)c1OC`, for which the GI50 is 3.92 µM (inactive) in test [1]; 3.64 µM (inactive) in test [2]; 5.42 µM (inactive) in test [3]; 1.57 µM (inactive) in [4]; 1.44 µM (inactive) in test [5]; 2.23 µM (inactive) in test [6]. In addition, the GI50 in test [7] is 5.48 µM (inactive); in test [8] it was 3.05 µM (inactive); in test [9], 2.97 µM; in [10], 6.21 µM (inactive); in test [11], 1.16 µM (inactive); in test [12], 1.32 µM (inactive). The GI50 is 3.79 µM (inactive) in test [13]; 3.81 µM (inactive) in [14]; 3.58 µM (inactive) in [15]; 2.39 µM (inactive) in [16]; 1.37 µM (inactive) in test [17]; 3.5 µM (inactive) in [18]. Besides, the GI50 is 2.6 µM (inactive) in test [19] and 2.72 µM (inactive) in test [20].

Regarding `O=C1CC2OCC=C3CN4CCC56c7ccccc7N1C5C2C3CC46O` (stereo not given), the GI50 in test [1], in test [2], in test [3], in [4], in [5] and in test [6] was > 100 µM (inactive) each time. The GI50 was > 100 µM (inactive) in test [7]; > 100 µM (inactive) in test [8]; over 100 µM in test [9]; > 100 µM (inactive) in [10]; > 100 µM (inactive) in test [11]; > 100 µM (inactive) in test [12]. In addition, the GI50 in test [13], in test [14], in [15], in test [16], in test [17] and in test [18] was > 100 µM (inactive) each time. The GI50 in test [19] and in test [20] was > 100 µM (inactive) throughout.

Take `CCOC(=O)c1nc2ccc(C(F)(F)F)cc2nc1NCc1ccc(OC)c(OC)c1`: the GI50 in [1] was > 100 µM (inactive); in [2] it was 42.8 µM (inactive); in test [3], > 100 µM (inactive); in test [4], 65.6 µM (inactive); in test [5] it was 39.2 µM (inactive); in test [6], 24.2 µM (inactive). Further, the GI50 was 37.7 µM (inactive) in test [7]; 60.7 µM (inactive) in test [8]; 69 µM in [9]; 55.5 µM (inactive) in [10]; 49.7 µM (inactive) in test [11]; 49.5 µM (inactive) in test [12]. Besides, the GI50 in test [13] is 80.4 µM (inactive); in [14], 71.1 µM (inactive); in test [15], 29.7 µM (inactive); in test [16], 36.1 µM (inactive); in test [17] it was 34.9 µM (inactive); in test [18] it was 50.1 µM (inactive). Moreover, the GI50 in [19] was > 100 µM (inactive); in test [20] it was 37.8 µM (inactive).

Take `Cc1csc2nc(-c3cc([N+](=O)[O-])c(Cl)cc3Cl)c(/C=N/N=C(N)N)n12`: the GI50 in [1] was 17.4 µM (inactive); in [2], 15.4 µM (inactive); in test [3], 14.8 µM (inactive); in test [4], 27.2 µM (inactive); in test [5], 16.7 µM (inactive); in [6], 13.4 µM (inactive). For the same molecule, the GI50 in test [7] was 15.3 µM (inactive); in test [8], 16 µM (inactive); in test [9] it was 21.2 µM; in [10] it was 14.4 µM (inactive); in [11], 17.2 µM (inactive); in test [12] it was 6.53 µM (inactive). Further, the GI50 in test [13] is 19.2 µM (inactive); in test [14], 16.4 µM (inactive); in test [15], 14.4 µM (inactive); in test [16], 16.7 µM (inactive); in [17] it was 0.0986 µM (active); in [18] it was 17.1 µM (inactive). Also, the GI50 in [19] was 19.5 µM (inactive); in test [20] it was 16.1 µM (inactive).

Consider `CCOC(=O)C1=CNC(C(=O)OCC)C1c1cccn1-c1ccc(Cl)cc1[N+](=O)[O-]` (stereo not given), for which the GI50 in [1] is 12.5 µM (inactive); in test [2] it was 15.8 µM (inactive); in test [3], 10 µM (inactive); in [4], 24.5 µM (inactive); in test [5], 17.1 µM (inactive); in test [6], 15.4 µM (inactive). Also, the GI50 in test [7] was 20.6 µM (inactive); in test [8], 22.9 µM (inactive); in test [9], 21.5 µM; in test [10], 20.2 µM (inactive); in test [11], 27.9 µM (inactive); in [12], 23.8 µM (inactive). In addition, the GI50 in test [13] was 25.8 µM (inactive); in test [14], 9.4 µM (inactive); in [15], 17.6 µM (inactive); in [16] it was 15.9 µM (inactive); in [17], 22.1 µM (inactive); in test [18] it was 21.5 µM (inactive). Further, the GI50 was 19.1 µM (inactive) in [19] and 16.6 µM (inactive) in test [20].

In the case of `NCC(Cc1ccccc1)P(=O)(O)O` (stereo not given), the GI50 in test [1], in test [2], in test [3], in test [4], in [5] and in test [6] was > 100 µM (inactive) throughout. Besides, the GI50 is > 100 µM (inactive) in test [7]; > 100 µM (inactive) in [8]; over 100 µM in [9]; > 100 µM (inactive) in test [10]; > 100 µM (inactive) in [11]; > 100 µM (inactive) in test [12]. In addition, the GI50 in test [13], in test [14], in test [15], in test [16], in test [17] and in [18] was > 100 µM (inactive) throughout. Also, the GI50 in [19] and in test [20] was > 100 µM (inactive) in each case.

`CCC(=O)C(CCN1CCC2(CCCc3ccccc32)CC1)(c1ccccc1)c1ccccc1`: the GI50 was 3.74 µM (inactive) in test [1]; 2.33 µM (inactive) in test [2]; 2.51 µM (inactive) in [3]; 1.78 µM (inactive) in test [4]; 1.42 µM (inactive) in test [5]; 2 µM (inactive) in test [6]. The GI50 was 2.86 µM (inactive) in test [7]; 2.39 µM (inactive) in test [8]; 2.55 µM in test [9]; 1.79 µM (inactive) in test [10]; 2.87 µM (inactive) in test [11]; 1.8 µM (inactive) in test [12]. Also, the GI50 in test [13] was 3.66 µM (inactive); in [14], 2.77 µM (inactive); in [15], 1.47 µM (inactive); in test [16] it was 0.851 µM (active); in test [17], 1.41 µM (inactive); in test [18], 3.49 µM (inactive). Also, the values for the GI50 in [19] and in test [20] were 2.12 µM (inactive) and 1.49 µM (inactive), respectively.

For `Cc1ccc(S(=O)(=O)N/C(=N\O)Nc2ccc(Cl)c(Cl)c2)cc1`, the GI50 in test [1] is 3.2 µM (inactive); in test [2] it was 3.73 µM (inactive); in test [3], 9.98 µM (inactive); in test [4] it was 2.42 µM (inactive); in [5], 5.31 µM (inactive); in test [6], 10.2 µM (inactive). Moreover, the GI50 is 17.5 µM (inactive) in test [7]; 5.02 µM (inactive) in test [8]; 6.67 µM in test [9]; 11.2 µM (inactive) in [10]; 11.2 µM (inactive) in test [11]; 13 µM (inactive) in [12]. Also, the GI50 was 8.04 µM (inactive) in [13]; 13.9 µM (inactive) in [14]; 3.05 µM (inactive) in [15]; 4.11 µM (inactive) in test [16]; 1.98 µM (inactive) in [17]; 3.48 µM (inactive) in test [18]. Besides, the GI50 is 4.6 µM (inactive) in [19] and 2.05 µM (inactive) in [20].

For `NC(=O)NC(=O)c1cccc(NC(=O)CBr)c1`, the GI50 in [1] is < 0.0204 µM (active); in test [2], < 0.0206 µM (active); in [3] it was 0.0631 µM (active); in test [4] it was < 0.01 µM (active); in [5], < 0.01 µM (active); in test [6], 0.0286 µM (active). Also, the GI50 in test [7] is < 0.01 µM (active); in test [8] it was 0.209 µM (active); in test [9] it was under 0.0161 µM; in [10], 0.0216 µM (active); in [11], < 0.01 µM (active); in test [12], < 0.01 µM (active). Further, the GI50 in test [13] was < 0.0172 µM (active); in test [14], 0.0266 µM (active); in test [15], < 0.0216 µM (active); in test [16] it was < 0.01 µM (active); in [17], < 0.01 µM (active); in test [18] it was < 0.0143 µM (active). In addition, the GI50 in test [19] was < 0.01 µM (active); in [20], < 0.0119 µM (active).
